What was measured:
Sclerotinia sclerotiorum [1] = assay: In vivo antifungal Sclerotinia sclerotiorum in Pepper (Capsicum annuum L. cv. Sera Demre) assessed as inhibition of mycelial growth in volatile phase at 150 umol/L measured after 10 to 14 weeks; type: functional
Sclerotinia sclerotiorum [2] = assay: In vivo antifungal Sclerotinia sclerotiorum in Pepper (Capsicum annuum L. cv. Sera Demre) assessed as inhibition of mycelial growth in volatile phase at 75 umol/L measured after 10 to 14 weeks; type: functional
Sclerotinia sclerotiorum [3] = assay: Antifungal activity against Sclerotinia sclerotiorum assessed as inhibition of mycelial growth in volatile phase at 751 umol/l measured at 20 degC after 5 days; type: functional; settings: 120 h, read-out: GI
Sclerotinia sclerotiorum [4] = assay: Antifungal activity against Sclerotinia sclerotiorum assessed as inhibition of mycelial growth in volatile phase at 525 umol/l measured at 20 degC after 5 days; type: functional; settings: 120 h, read-out: GI
Sclerotinia sclerotiorum [5] = assay: Antifungal activity against Sclerotinia sclerotiorum assessed as inhibition of mycelial growth in volatile phase at 375 umol/l measured at 20 degC after 5 days; type: functional; settings: 120 h, read-out: GI
Sclerotinia sclerotiorum [6] = assay: Antifungal activity against Sclerotinia sclerotiorum assessed as inhibition of mycelial growth in volatile phase at 75 umol/l measured at 20 degC after 5 days; type: functional; settings: 120 h, read-out: GI
Sclerotinia sclerotiorum [7] = assay: Antifungal activity against Sclerotinia sclerotiorum assessed as inhibition of mycelial growth in volatile phase at 38 umol/l measured at 20 degC after 5 days; type: functional; settings: 120 h, read-out: GI
Sclerotinia sclerotiorum [8] = assay: Antifungal activity against Sclerotinia sclerotiorum assessed as inhibition of mycelial growth in contact phase at 2252 umol/l measured at 20 degC after 5 days; type: functional; settings: 120 h, read-out: GI
Sclerotinia sclerotiorum [9] = assay: Antifungal activity against Sclerotinia sclerotiorum assessed as inhibition of mycelial growth in contact phase at 1501 umol/l measured at 20 degC after 5 days; type: functional; settings: 120 h, read-out: GI
Sclerotinia sclerotiorum [10] = assay: Antifungal activity against Sclerotinia sclerotiorum assessed as inhibition of mycelial growth in contact phase at 751 umol/l measured at 20 degC after 5 days; type: functional; settings: 120 h, read-out: GI
Sclerotinia sclerotiorum [11] = assay: Antifungal activity against Sclerotinia sclerotiorum assessed as inhibition of mycelial growth in contact phase at 676 umol/l measured at 20 degC after 5 days; type: functional; settings: 120 h, read-out: GI
Sclerotinia sclerotiorum [12] = assay: Antifungal activity against Sclerotinia sclerotiorum assessed as inhibition of mycelial growth in contact phase at 525 umol/l measured at 20 degC after 5 days; type: functional; settings: 120 h, read-out: GI
Sclerotinia sclerotiorum [13] = assay: Fungistatic activity in Sclerotinia sclerotiorum assessed as inhibition of carpogenic germination in volatile phase at 75 umol/l measured at 20 degC after 5 days relative to control; type: functional; settings: 120 h
Sclerotinia sclerotiorum [14] = assay: Fungistatic activity in Sclerotinia sclerotiorum assessed as inhibition of carpogenic germination in volatile phase at 38 umol/l measured at 20 degC after 5 days relative to control; type: functional; settings: 120 h
Sclerotinia sclerotiorum [15] = assay: Fungistatic activity in Sclerotinia sclerotiorum assessed as inhibition of carpogenic germination in volatile phase at 751 umol/l measured at 20 degC after 5 days relative to control; type: functional; settings: 120 h
Sclerotinia sclerotiorum [16] = assay: Fungistatic activity in Sclerotinia sclerotiorum assessed as inhibition of carpogenic germination in volatile phase at 375 umol/l measured at 20 degC after 5 days relative to control; type: functional; settings: 120 h
Sclerotinia sclerotiorum [17] = assay: Fungistatic activity in Sclerotinia sclerotiorum assessed as sclerotial viability measured at 20 degC after 5 days; type: functional, organism-based; settings: 120 h
Sclerotinia sclerotiorum [18] = assay: Fungistatic activity in Sclerotinia sclerotiorum assessed as inhibition of mycelial growth in volatile phase measured at 20 degC after 5 days; type: functional, organism-based; settings: 120 h
Sclerotinia sclerotiorum [19] = assay: Fungistatic activity in Sclerotinia sclerotiorum assessed as inhibition of mycelial growth in contact phase measured at 20 degC after 5 days; type: functional, organism-based; settings: 120 h
Sclerotinia sclerotiorum [20] = assay: Fungitoxic activity in Sclerotinia sclerotiorum assessed as viability in volatile phase at 225 umol/l measured at 20 degC after 5 days relative to control; type: functional; settings: 120 h, read-out: GI
Sclerotinia sclerotiorum [21] = assay: Fungitoxic activity in Sclerotinia sclerotiorum assessed as inhibition of mycelial growth in contact phase at 2252 umol/l measured at 20 degC after 5 days relative to control; type: functional; settings: 120 h, read-out: GI
Sclerotinia sclerotiorum [22] = assay: Fungistatic activity in Sclerotinia sclerotiorum assessed as inhibition of mycelial growth in contact phase at 1501 umol/l measured at 20 degC after 5 days relative to control; type: functional; settings: 120 h, read-out: GI
Sclerotinia sclerotiorum [23] = assay: Fungitoxic activity in Sclerotinia sclerotiorum assessed as inhibition of mycelial growth in volatile phase at 751 umol/l measured at 20 degC after 5 days relative to control; type: functional; settings: 120 h, read-out: GI
Sclerotinia sclerotiorum [24] = assay: Antifungal activity against Sclerotinia sclerotiorum assessed as inhibition of germination in volatile phase at 225 umol/l measured at 20 degC after 5 days; type: functional; settings: 120 h
Sclerotinia sclerotiorum [25] = assay: Antifungal activity against Sclerotinia sclerotiorum assessed as inhibition of germination in volatile phase at 75 umol/l measured at 20 degC after 5 days; type: functional; settings: 120 h
Sclerotinia sclerotiorum [26] = assay: Antifungal activity against Sclerotinia sclerotiorum assessed as inhibition of germination in volatile phase at 38 umol/l measured at 20 degC after 5 days; type: functional; settings: 120 h
Sclerotinia sclerotiorum [27] = assay: Fungistatic activity in Sclerotinia sclerotiorum assessed as inhibition of mycelial growth in volatile phase at 525 umol/l measured at 20 degC after 5 days relative to control; type: functional; settings: 120 h, read-out: GI
Sclerotinia sclerotiorum [28] = assay: Antifungal activity against Sclerotinia sclerotiorum assessed as inhibition of germination in volatile phase at 751 umol/l measured at 20 degC after 5 days; type: functional; settings: 120 h
Sclerotinia sclerotiorum [29] = assay: Antifungal activity against Sclerotinia sclerotiorum assessed as inhibition of germination in volatile phase at 375 umol/l measured at 20 degC after 5 days; type: functional; settings: 120 h

Q: With `S=C=NCc1ccccc1` [BENZYL ISOTHIOCYANATE] as the compound, how does the inhibition in vivo at 150 µM (Sclerotinia sclerotiorum [1]) read?
A: The inhibition in vivo at 150 µM was 63.3%.

Q: And the inhibition in vivo at 75 µM (Sclerotinia sclerotiorum [2])?
A: The inhibition in vivo at 75 µM was 36.7%.

Q: What about the inhibition of growth at 751 µM (Sclerotinia sclerotiorum [3]) of the same compound?
A: Its inhibition of growth at 751 µM is 100%.

Q: What about the inhibition of growth at 525 µM (Sclerotinia sclerotiorum [4]) of the same compound?
A: Its inhibition of growth at 525 µM is 100%.

Q: What about the inhibition of growth at 375 µM (Sclerotinia sclerotiorum [5]) of the same compound?
A: Its inhibition of growth at 375 µM is 78.2%.

Q: What about the inhibition of growth at 75 µM (Sclerotinia sclerotiorum [6]) of the same compound?
A: The inhibition of growth at 75 µM was 71.2%.

Q: And the inhibition of growth at 38 µM (Sclerotinia sclerotiorum [7])?
A: The inhibition of growth at 38 µM was 35%.

Q: What about the inhibition of growth at 2252 µM (Sclerotinia sclerotiorum [8]) of the same compound?
A: The inhibition of growth at 2252 µM was 100%.

Q: What about the inhibition of growth at 1501 µM (Sclerotinia sclerotiorum [9]) of the same compound?
A: The inhibition of growth at 1501 µM was 100%.

Q: What about the inhibition of growth at 751 µM (Sclerotinia sclerotiorum [10]) of the same compound?
A: Its inhibition of growth at 751 µM is 100%.

Q: What about the inhibition of growth at 676 µM (Sclerotinia sclerotiorum [11]) of the same compound?
A: The inhibition of growth at 676 µM was 37%.

Q: What about the inhibition of growth at 525 µM (Sclerotinia sclerotiorum [12]) of the same compound?
A: Its inhibition of growth at 525 µM is 5%.

Q: What about the inhibition at 75 µM (Sclerotinia sclerotiorum [13]) of the same compound?
A: The inhibition at 75 µM was 62.5%.

Q: And the inhibition at 38 µM (Sclerotinia sclerotiorum [14])?
A: The inhibition at 38 µM was 55%.

Q: What about the inhibition at 751 µM (Sclerotinia sclerotiorum [15]) of the same compound?
A: The inhibition at 751 µM was 92.5%.

Q: And the inhibition at 375 µM (Sclerotinia sclerotiorum [16])?
A: The inhibition at 375 µM was 72.5%.

Q: And the EC50 (Sclerotinia sclerotiorum [17])?
A: Its EC50 is 75.1 µM.

Q: What about the EC50 (Sclerotinia sclerotiorum [18]) of the same compound?
A: Its EC50 is 60.1 µM.

Q: And the EC50 (Sclerotinia sclerotiorum [19])?
A: Its EC50 is 676 µM.

Q: What about the inhibition of growth at 225 µM (Sclerotinia sclerotiorum [20]) of the same compound?
A: Its inhibition of growth at 225 µM is 100%.

Q: What about the inhibition of growth at 2252 µM (Sclerotinia sclerotiorum [21]) of the same compound?
A: The inhibition of growth at 2252 µM was 100%.

Q: And the inhibition of growth at 1501 µM (Sclerotinia sclerotiorum [22])?
A: The inhibition of growth at 1501 µM was 100%.

Q: And the inhibition of growth at 751 µM (Sclerotinia sclerotiorum [23])?
A: Its inhibition of growth at 751 µM is 100%.

Q: And the inhibition at 225 µM (Sclerotinia sclerotiorum [24])?
A: Its inhibition at 225 µM is 100%.

Q: What about the inhibition at 75 µM (Sclerotinia sclerotiorum [25]) of the same compound?
A: The inhibition at 75 µM was 53.3%.

Q: And the inhibition at 38 µM (Sclerotinia sclerotiorum [26])?
A: Its inhibition at 38 µM is 6.7%.

Q: What about the inhibition of growth at 525 µM (Sclerotinia sclerotiorum [27]) of the same compound?
A: Its inhibition of growth at 525 µM is 100%.

Q: And the inhibition at 751 µM (Sclerotinia sclerotiorum [28])?
A: Its inhibition at 751 µM is 100%.

Q: What about the inhibition at 375 µM (Sclerotinia sclerotiorum [29]) of the same compound?
A: Its inhibition at 375 µM is 100%.

— ChEMBL document CHEMBL3046027, “In vitro and in vivo antifungal activity of synthetic pure isothiocyanates against Sclerotinia sclerotiorum” (Pest Manag Sci, 2011)
